Laboratory results: PubChem BioAssay AID651764 (The Scripps Research Institute Molecular Screening Center, 2012)
Calls of active or inactive are those of the source. The rule behind the calls is not given here.

biological target: Delta-type opioid receptor (Homo sapiens) (UniProt P41143); test: activators in OPRD1-only cells, late-stage follow-up, counter-screen for OPRM1-OPRD1 heterodimer activator project, cell-based, luminescence, dose response, set 2 (AID 651764); details: OPRD1 cell-based luminescence activation counterscreen
Sequence (P41143 whole entry, looked up): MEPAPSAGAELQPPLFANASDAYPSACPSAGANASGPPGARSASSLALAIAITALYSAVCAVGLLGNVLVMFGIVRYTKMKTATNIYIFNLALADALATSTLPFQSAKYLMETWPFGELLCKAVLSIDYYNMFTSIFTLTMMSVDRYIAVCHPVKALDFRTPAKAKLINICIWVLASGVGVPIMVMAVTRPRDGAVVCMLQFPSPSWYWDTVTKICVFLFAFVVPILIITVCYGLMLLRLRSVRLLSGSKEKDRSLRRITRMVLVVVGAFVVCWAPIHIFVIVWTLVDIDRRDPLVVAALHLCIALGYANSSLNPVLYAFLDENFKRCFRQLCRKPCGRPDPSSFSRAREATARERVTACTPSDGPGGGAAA

Structure (SMILES)	EC50
CCOC(=O)C1(Cc2ccccc2)CCCN(Cc2ccc(NC(C)=O)cc2)C1 (stereo not drawn)	> 50 µM (inactive)
CCOC(=O)C1(Cc2ccc(OC)cc2)CCN(C(=O)c2ccc(N(C)C)cc2)CC1	> 50 µM (inactive)
CCOC(=O)C1CCN(C(=O)c2ccc(N(C)C)cc2)CC1	> 50 µM (inactive)
CCOC(=O)C1(CC2CC2)CCN(Cc2ccc(NC(C)=O)cc2)CC1	> 50 µM (inactive)
CCOC(=O)C1CCN(Cc2ccc(NC(C)=O)cc2)CC1	> 50 µM (inactive)
CCOC(=O)C1CCN(CCC(=O)Nc2ccc(C)cc2)CC1	> 50 µM (inactive)
CCOC(=O)C1(CCOc2ccccc2)CCCN(Cc2ccc(NC(C)=O)cc2)C1 (stereo not drawn)	> 50 µM (inactive)
O=C(O)C1CCCCC1C(=O)Nc1ccc(CN2CCCCC2)cc1 (stereo not drawn)	> 50 µM (inactive)
CCOC(=O)C1(CC2CC2)CCN(C(=O)c2ccc(N3CCCCC3)cc2)CC1	> 50 µM (inactive)
CCOC(=O)C1CCN(Cc2ccc(N(C)C)cc2)CC1	> 50 µM (inactive)
CC(=O)Nc1ccc(CN2CCCC(CO)(CCc3ccccc3)C2)cc1 (stereo not drawn)	> 50 µM (inactive)
CCOC(=O)C1(CCOC)CCN(Cc2ccc(NC(C)=O)cc2)CC1	> 50 µM (inactive)
CCOC(=O)C1(Cc2ccccc2C)CCCN(Cc2ccc(NC(C)=O)cc2)C1 (stereo not drawn)	> 50 µM (inactive)
CCOC(=O)C1(CCc2ccccc2)CCCN(Cc2ccc(N3CCNC3=O)cc2)C1 (stereo not drawn)	> 50 µM (inactive)
CCOC(=O)C1(CCOC)CCCN(Cc2ccc(NC(C)=O)cc2)C1 (stereo not drawn)	> 50 µM (inactive)
CCOC(=O)C1CCCCN1Cc1ccc(NC(C)=O)cc1 (stereo not drawn)	> 50 µM (inactive)
CCOC(=O)C1(CCOC)CCN(Cc2ccc(N(C)c3ccccc3)cc2)CC1	> 50 µM (inactive)
CCOC(=O)C1(Cc2ccccc2Cl)CCN(Cc2ccc(NC(C)=O)cc2)CC1	0.321 µM
CCOC(=O)C1(Cc2cccc(OC)c2)CCCN(Cc2ccc(NC(C)=O)cc2)C1 (stereo not drawn)	> 50 µM (inactive)

Further lines, results first:

EC50	Structure (SMILES)
> 50 µM (inactive)	CCOC(=O)C1(CCc2ccccc2)CCN(Cc2c(O)cccc2OC)CC1
> 50 µM (inactive)	C=Cc1ccc(C(=O)N2CCC(CCc3ccccc3)(C(=O)OCC)CC2)cc1
> 50 µM (inactive)	CCOC(=O)C1(CCc2ccccc2)CCN(C(=O)Nc2ccc(C)cc2C)CC1
> 50 µM (inactive)	CCOC(=O)C1(CCc2ccccc2)CCN(Cc2ccc(OC)cc2)CC1
> 50 µM (inactive)	CCOC(=O)C1(CCc2ccccc2)CCN(Cc2ccncc2)CC1
> 50 µM (inactive)	CCOC(=O)C1(CCc2ccccc2)CCN(Cc2ccc(O)cc2)CC1
> 50 µM (inactive)	CCOC(=O)C1(CCc2ccccc2)CCN(Cc2ccc(C(=O)OC)cc2)CC1
> 50 µM (inactive)	CCOC(=O)C1(CCc2ccccc2)CCN(Cc2ccc(C#CC(C)(C)O)cc2)CC1
> 50 µM (inactive)	C=Cc1ccc(C(=O)N2CCC(CCCc3ccccc3)(C(=O)OCC)CC2)cc1
